# Measurements reported in patent US11260049B2, “TRPV4 antagonists” (GlaxoSmithKline Intellectual Property (No. 2) Limited, priority 2016, dated 2022).
# Target: human TRPV4 (Homo sapiens (Human), UniProt Q9HBA0)
# Assay: FLIPR assay for hTRPV4 expressed in BHK cells
# Assay type: cell-based
# Conditions: inhibition of Agonist Compound (EC80)-induced calcium signal; BHK/AC9 cells expressing human TRPV4; read-out: IC50
# Experimental: FLIPR Assay for hTRPV4 Expressed in BHK Cells:
# TRPV4 channel activation results in an influx of divalent and monovalent cations including calcium. The resulting changes in intracellular calcium were monitored using a calcium specific fluorescent dye Fluo-4 (MDS Analytical Technologies). BHK/AC9 cells transduced with BacMam virus expressing the human TRPV4 gene at a MOI of 78 were plated in a 384 well poly-D lysine coated plate (15,000 cells/well in 50 μL culture medium containing DMEM/F12 with 15 mM HEPES, 10% FBS, 1% Penicillin-Streptomycin and 1% L-glutamine). Cells were incubated for 24 hours at 37° C. and 5% CO2. Culture medium was then aspirated using a Tecan plate-washer and replaced with 20 μL/well of dye loading buffer: HBSS, 500 μM Brilliant Black (MDS Analytical Technologies), and 2 μM Fluo-4 AM. Dye loaded plates were then incubated in the dark at room temperature for 1˜1.5 hours.
# human TRPV4, sequence (Q9HBA0 whole entry): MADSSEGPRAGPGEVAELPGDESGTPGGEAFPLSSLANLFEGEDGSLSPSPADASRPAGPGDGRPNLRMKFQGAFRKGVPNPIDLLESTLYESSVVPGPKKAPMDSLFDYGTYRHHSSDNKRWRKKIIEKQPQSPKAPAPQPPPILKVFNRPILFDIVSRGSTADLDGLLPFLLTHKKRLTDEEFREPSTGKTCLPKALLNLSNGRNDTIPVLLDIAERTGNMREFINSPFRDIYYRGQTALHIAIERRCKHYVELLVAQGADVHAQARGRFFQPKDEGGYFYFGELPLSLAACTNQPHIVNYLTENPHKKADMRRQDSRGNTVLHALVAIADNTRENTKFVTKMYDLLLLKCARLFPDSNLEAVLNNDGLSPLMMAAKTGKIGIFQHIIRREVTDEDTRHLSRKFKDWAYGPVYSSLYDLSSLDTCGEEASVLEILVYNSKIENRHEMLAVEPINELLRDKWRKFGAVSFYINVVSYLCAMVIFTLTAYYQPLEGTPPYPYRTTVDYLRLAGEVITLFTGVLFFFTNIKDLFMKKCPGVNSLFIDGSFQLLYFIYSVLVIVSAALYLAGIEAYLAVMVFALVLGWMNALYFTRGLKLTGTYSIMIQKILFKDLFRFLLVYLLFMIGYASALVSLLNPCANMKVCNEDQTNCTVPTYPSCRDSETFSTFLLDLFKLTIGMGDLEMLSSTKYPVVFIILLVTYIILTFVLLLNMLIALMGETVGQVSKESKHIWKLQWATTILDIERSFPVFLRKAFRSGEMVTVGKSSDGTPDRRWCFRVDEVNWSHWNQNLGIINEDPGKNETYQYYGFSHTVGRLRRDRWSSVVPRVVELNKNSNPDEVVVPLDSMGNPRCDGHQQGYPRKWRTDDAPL
row,Structure (SMILES),IC50
1,"N#Cc1ccc(S(=O)(=O)[C@H]2CN(S(=O)(=O)c3ccc(C(F)(F)F)cc3Cl)C[C@@]2(O)CO)cc1Cl [Example 101, 2-chloro-4-(((3S,4R)-1-((2-chloro-4-(trifluoromethyl)phenyl)sulfonyl)-4-hydroxy-4-(hydroxymethyl)pyrrolidin-3-yl)sulfonyl)benzonitrile]",0.01 to 0.1 µM
2,"O=S(=O)(c1ccc(Cl)cc1)[C@H]1CN(S(=O)(=O)c2ccc(Cl)cc2Cl)C[C@@]1(O)CO [Example 18, (3R,4S)-4-((4-chlorophenyl)sulfonyl)-1-((2,4-dichlorophenyl)sulfonyl)-3-(hydroxymethyl)pyrrolidin-3-ol]",0.01 to 0.1 µM
3,"N#Cc1ccc(S(=O)(=O)[C@H]2CN(S(=O)(=O)c3ccc(C(F)(F)F)cc3F)C[C@@]2(O)CO)cc1F [Example 69, 2-fluoro-4-(((3S,4R)-1-((2-fluoro-4-(trifluoromethyl)phenyl)sulfonyl)-4-hydroxy-4-(hydroxymethyl)pyrrolidin-3-yl)sulfonyl)benzonitrile]",0.01 to 0.1 µM
4,"N#Cc1ccc(S(=O)(=O)N2C[C@H](S(=O)(=O)c3ccc(Br)cn3)[C@@](O)(CO)C2)c(Cl)c1 [Example 81, 4-(((3S,4S)-4-((5-bromopyridin-2-yl)sulfonyl)-3-hydroxy-3-(hydroxymethyl)pyrrolidin-1-yl)sulfonyl)-3-chlorobenzonitrile]",0.01 to 0.1 µM
5,"N#Cc1ccc(S(=O)(=O)N2C[C@H](S(=O)(=O)c3ccc(Br)cn3)[C@](O)(CO)C2)c(Cl)c1 [Example 113, 4-(((3R,4S)-4-((5-bromopyridin-2-yl)sulfonyl)-3-hydroxy-3-(hydroxymethyl)pyrrolidin-1-yl)sulfonyl)-3-chlorobenzonitrile]",0.0001 to 0.01 µM
6,"O=S(=O)(c1ccc(F)cc1)[C@H]1CN(S(=O)(=O)c2ccc(Cl)cc2Cl)C[C@@]1(O)CO [Example 102, (3R,4S)-1-((2,4-dichlorophenyl)sulfonyl)-4-((4-fluorophenyl)sulfonyl)-3-(hydroxymethyl)pyrrolidin-3-ol]",0.01 to 0.1 µM
7,"N#Cc1ccc(S(=O)(=O)N2C[C@H](S(=O)(=O)c3ccc(C#N)c(F)c3)[C@](O)(CO)C2)c(Cl)c1 [Example 10, 4-(((3S,4R)-1-((2-chloro-4-cyanophenyl)sulfonyl)-4-hydroxy-4-(hydroxymethyl)pyrrolidin-3-yl)sulfonyl)-2-fluorobenzonitrile]",0.0001 to 0.01 µM
8,"O=S(=O)(c1ccc(Cl)nc1)[C@H]1CN(S(=O)(=O)c2ccc(C(F)(F)F)cc2Cl)C[C@@]1(O)CO [Example 99, (3R,4S)-1-((2-chloro-4-(trifluoromethyl)phenyl)sulfonyl)-4-((6-chloropyridin-3-yl)sulfonyl)-3-(hydroxymethyl)pyrrolidin-3-ol]",0.01 to 0.1 µM
9,"N#Cc1c(F)cc(S(=O)(=O)[C@H]2CN(S(=O)(=O)c3ccc(C(F)(F)F)cc3Cl)C[C@@]2(O)CO)cc1F [Example 91, 4-(((3S,4R)-1-((2-chloro-4-(trifluoromethyl)phenyl)sulfonyl)-4-hydroxy-4-(hydroxymethyl)pyrrolidin-3-yl)sulfonyl)-2,6-difluorobenzonitrile]",0.01 to 0.1 µM
10,"O=S(=O)(c1ccc(Cl)cc1)[C@H]1CN(S(=O)(=O)c2ccc(Cl)cc2C(F)F)C[C@@]1(O)CO [Example 65, (3R,4S)-1-((4-chloro-2-(difluoromethyl)phenyl)sulfonyl)-4-((4-chlorophenyl)sulfonyl)-3-(hydroxymethyl)pyrrolidin-3-ol]",0.01 to 0.1 µM
11,"N#Cc1ccc(S(=O)(=O)[C@H]2CN(S(=O)(=O)c3ccc(C(F)(F)F)cc3Cl)C[C@@]2(O)CO)cn1 [Example 92, 5-(((3S,4R)-1-((2-chloro-4-(trifluoromethyl)phenyl)sulfonyl)-4-hydroxy-4-(hydroxymethyl)pyrrolidin-3-yl)sulfonyl)picolinonitrile]",0.01 to 0.1 µM
12,"N#Cc1cc(F)c(S(=O)(=O)[C@H]2CN(S(=O)(=O)c3ccc(Cl)cc3Cl)C[C@]2(O)CO)cc1F [Example 79, 4-(((3S,4S)-1-((2,4-dichlorophenyl)sulfonyl)-4-hydroxy-4-(hydroxymethyl)pyrrolidin-3-yl)sulfonyl)-2,5-difluorobenzonitrile]",0.01 to 0.1 µM
13,"N#Cc1ccc(S(=O)(=O)[C@H]2CN(S(=O)(=O)c3ccc(F)cc3Cl)C[C@]2(O)CO)cc1F [Example 5, 4-(((3S,4S)-1-((2-chloro-4-fluorophenyl)sulfonyl)-4-hydroxy-4-(hydroxymethyl)pyrrolidin-3-yl)sulfonyl)-2-fluorobenzonitrile]",0.01 to 0.1 µM
14,"N#Cc1ccc(S(=O)(=O)N2C[C@H](S(=O)(=O)c3nccs3)[C@](O)(CO)C2)c(Cl)c1 [Example 68, 3-chloro-4-(((3R,4S)-3-hydroxy-3-(hydroxymethyl)-4-(thiazol-2-ylsulfonyl)pyrrolidin-1-yl)sulfonyl)benzonitrile]",0.01 to 0.1 µM
15,"COc1ccc(S(=O)(=O)N2C[C@H](S(=O)(=O)c3ccc(C#N)cc3)[C@](O)(CO)C2)c(C(F)(F)F)c1 [Example 31, 4-(((3S,4R)-4-hydroxy-4-(hydroxymethyl)-1-((4-methoxy-2-(trifluoromethyl)phenyl)sulfonyl)pyrrolidin-3-yl)sulfonyl)benzonitrile]",0.01 to 0.1 µM
16,"O=S(=O)(c1ccc(Cl)cc1)[C@H]1CN(S(=O)(=O)c2ccc(CF)cc2Cl)C[C@@]1(O)CO [Example 43, (3R,4S)-1-((2-chloro-4-(fluoromethyl)phenyl)sulfonyl)-4-((4-chlorophenyl)sulfonyl)-3-(hydroxymethyl)pyrrolidin-3-ol]",0.01 to 0.1 µM
17,"N#Cc1cc(Cl)ccc1S(=O)(=O)N1C[C@H](S(=O)(=O)c2ccc(C(F)(F)F)nc2)[C@](O)(CO)C1 [Example 40, 5-chloro-2-(((3R,4S)-3-hydroxy-3-(hydroxymethyl)-4-((6-(trifluoromethyl)pyridin-3-yl)sulfonyl)pyrrolidin-1-yl)sulfonyl)benzonitrile]",0.01 to 0.1 µM
18,"O=S(=O)(c1ccc(Cl)c(F)c1)[C@H]1CN(S(=O)(=O)c2ccc(C(F)(F)F)cc2Cl)C[C@@]1(O)CO [Example 98, (3R,4S)-4-((4-chloro-3-fluorophenyl)sulfonyl)-1-((2-chloro-4-(trifluoromethyl)phenyl)sulfonyl)-3-(hydroxymethyl)pyrrolidin-3-ol]",0.01 to 0.1 µM
19,"COc1cc(C#N)ccc1S(=O)(=O)N1C[C@H](S(=O)(=O)c2ccc(Cl)cc2)[C@](O)(CO)C1 [Example 35, 4-(((3R,4S)-4-((4-chlorophenyl)sulfonyl)-3-hydroxy-3-(hydroxymethyl)pyrrolidin-1-yl)sulfonyl)-3-methoxybenzonitrile]",0.0001 to 0.01 µM
20,"O=S(=O)(c1ccc(Cl)c(F)c1)[C@H]1CN(S(=O)(=O)c2ccc(C(F)(F)F)cc2Cl)C[C@]1(O)CO [Example 78, (3S,4S)-4-((4-chloro-3-fluorophenyl)sulfonyl)-1-((2-chloro-4-(trifluoromethyl)phenyl)sulfonyl)-3-(hydroxymethyl)pyrrolidin-3-ol]",0.01 to 0.1 µM
21,"CNC[C@]1(O)CN(S(=O)(=O)c2ccc(C#N)cc2Cl)C[C@@H]1S(=O)(=O)c1ccc(Cl)cc1 [Example 124, 3-chloro-4-(((3S,4S)-4-((4-chlorophenyl)sulfonyl)-3-hydroxy-3-((methylamino)methyl)pyrrolidin-1-yl)sulfonyl)benzonitrile]",0.0001 to 0.01 µM
22,"N#Cc1ccc(S(=O)(=O)N2C[C@H](S(=O)(=O)c3ncc(Cl)s3)[C@](O)(CO)C2)c(Cl)c1 [Example 73, 3-chloro-4-(((3R,4S)-4-((5-chlorothiazol-2-yl)sulfonyl)-3-hydroxy-3-(hydroxymethyl)pyrrolidin-1-yl)sulfonyl)benzonitrile]",0.01 to 0.1 µM
23,"N#Cc1ccc(S(=O)(=O)[C@H]2CN(S(=O)(=O)c3ccc(F)cc3Cl)C[C@@]2(O)CO)cc1 [Example 62, 4-(((3S,4R)-1-((2-chloro-4-fluorophenyl)sulfonyl)-4-hydroxy-4-(hydroxymethyl)pyrrolidin-3-yl)sulfonyl)benzonitrile]",0.01 to 0.1 µM
24,"O=S(=O)(c1ccc(Cl)cc1)[C@H]1CN(S(=O)(=O)c2cccnc2OC(F)F)C[C@@]1(O)CO [Example 67, (3R,4S)-4-((4-chlorophenyl)sulfonyl)-1-((2-(difluoromethoxy)pyridin-3-yl)sulfonyl)-3-(hydroxymethyl)pyrrolidin-3-ol]",0.01 to 0.1 µM
25,"O=S(=O)(c1ccc(Cl)c(F)c1)[C@H]1CN(S(=O)(=O)c2ccc(Cl)cc2Cl)C[C@]1(O)CO [Example 76, (3S,4S)-4-((4-chloro-3-fluorophenyl)sulfonyl)-1-((2,4-dichlorophenyl)sulfonyl)-3-(hydroxymethyl)pyrrolidin-3-ol]",0.01 to 0.1 µM
26,"N#Cc1ccc(S(=O)(=O)[C@H]2CN(S(=O)(=O)c3ccc(Cl)cc3C#N)C[C@@]2(O)CO)cc1 [Example 84, 5-chloro-2-(((3R,4S)-4-((4-cyanophenyl)sulfonyl)-3-hydroxy-3-(hydroxymethyl)pyrrolidin-1-yl)sulfonyl)benzonitrile]",0.0001 to 0.01 µM
27,"N#Cc1ccc(S(=O)(=O)[C@H]2CN(S(=O)(=O)c3ccc(Br)cc3Cl)C[C@@]2(O)CO)cc1 [Example 34, 4-(((3S,4R)-1-((4-bromo-2-chlorophenyl)sulfonyl)-4-hydroxy-4-(hydroxymethyl)pyrrolidin-3-yl)sulfonyl)benzonitrile]",0.0001 to 0.01 µM
28,COC(=O)c1ccc(S(=O)(=O)[C@H]2CN(S(=O)(=O)c3ccc(Cl)cc3C(F)F)C[C@@]2(O)CO)cc1 [Example 64],0.01 to 0.1 µM
29,"Cc1cc(C#N)ccc1S(=O)(=O)N1C[C@H](S(=O)(=O)c2ccc(Cl)cc2)[C@](O)(CO)C1 [Example 20, 4-(((3R,4S)-4-((4-chlorophenyl)sulfonyl)-3-hydroxy-3-(hydroxymethyl)pyrrolidin-1-yl)sulfonyl)-3-methylbenzonitrile]",0.01 to 0.1 µM
